Source: patent publication US11318134B2, “Benzamide compounds” (priority 2018, dated 2022)
One block for each compound: values may come before it.

Experiments:
Bcl-XL = Bcl-XL (Homo sapiens (Human), UniProt Q07817); assay: Bcl-2 protein family binding assay (Bcl2scan platform), Bcl-XL; details: BIM peptide ligand, 11-point dilution, read-out: Bc1-XL Kd (nm)
Description: (§1) E. coli were grown to log-phase and infected with T7 phage from a frozen stock (multiplicity of infection=0.4) and incubated with shaking at 32° C. until lysis (90-150 minutes). The lysates were centrifuged (5,000×g) and filtered (0.2 μm) to remove cell debris. […] The liganded beads were blocked with excess biotin and washed with blocking buffer (SeaBlock (Pierce), 1% BSA, 0.05% Tween 20, 1 mM DTT) to remove unbound ligand and to reduce non-specific phage binding. […] Test compounds were prepared as 100× stocks in 100% DMSO. Kds were determined using an 11-point 3-fold compound dilution series with one DMSO control point. […] The compounds were then diluted directly into the assays such that the final concentration of DMSO was 0.9%. All reactions performed in polypropylene 384-well plates. Each was a final volume of 0.02 ml. […] The BCL2 concentration in the eluates was measured by qPCR. Binding constants (Kds) were calculated with a standard dose-response curve using the Hill equation:
(§2) [formula] The Hill Slope was set to −1. Curves were fitted using a non-linear least square fit with the Levenberg-Marquardt algorithm.

Bcl-2 = Bcl-2 (Homo sapiens (Human), UniProt P10415); assay: Bcl-2 protein family binding assay (Bcl2scan platform), Bcl-2; details: BIM peptide ligand, 11-point dilution, read-out: Bc1-2 Kd (nm)
Description: as §1, §2

RS4;11 cells = assay: RS4;11 cell proliferation assay (CellTiter-Glo); type: cell-based; details: Homo sapiens, RS4-11, 48 h, read-out: RS4;11 (nM), CTG IC50
Description: Cell proliferation was measured using the CellTiter-Glo® Luminescent Cell Viability Assay. The assay involved the addition of a single reagent (CellTiter-Glo® Reagent) directly to cells cultured in serum-supplemented medium.
Each compound evaluated was prepared as a DMSO stock solution (10 mM). Compounds were tested in duplicate on each plate, with a 10-point serial dilution curve (1:3 dilution). Compound treatment (1.0 μL) was added from the compound dilution plate to the cell plate. The highest compound concentration was 10 μM (final), with a 0.1% final DMSO concentration. Plates were then incubated at 37° C., 5% CO2. After 48 h of compound treatment for RS4;11 or 72 h for NCI-H1963, cell plates were equilibrated at rt for approximately 30 mins. An equi-volume amount of CellTiter-Glo® Reagent (40 μL) was added to each well. […] Luminescence was recorded using a Envision plate reader according to CellTiter-Glo protocol. IC50 of each compound was calculated using GraphPad Prism by nonlinear regression analysis.

Bcl-2, sequence (P10415 whole entry): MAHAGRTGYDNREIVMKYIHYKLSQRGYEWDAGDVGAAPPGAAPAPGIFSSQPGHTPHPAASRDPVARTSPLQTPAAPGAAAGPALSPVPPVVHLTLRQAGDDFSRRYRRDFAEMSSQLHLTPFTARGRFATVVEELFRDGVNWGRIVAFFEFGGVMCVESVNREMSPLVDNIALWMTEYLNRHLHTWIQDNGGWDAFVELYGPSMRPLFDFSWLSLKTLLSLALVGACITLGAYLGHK
Bcl-XL, sequence (Q07817 whole entry): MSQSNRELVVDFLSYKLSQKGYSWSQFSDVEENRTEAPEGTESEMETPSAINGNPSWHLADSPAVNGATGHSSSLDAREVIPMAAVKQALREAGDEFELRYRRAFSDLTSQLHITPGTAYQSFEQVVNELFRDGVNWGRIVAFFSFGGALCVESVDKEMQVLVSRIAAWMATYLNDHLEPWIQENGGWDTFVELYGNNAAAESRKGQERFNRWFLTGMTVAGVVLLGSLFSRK

Structure (SMILES): CC1(C)CCC(CN2CCN(c3ccc(C(=O)NS(=O)(=O)c4ccc(NCC5CCOCC5)c([N+](=O)[O-])c4)c(Oc4cnc5[nH]ccc5c4)c3)CC2)=C(C23CC(Cl)(C2)C3)C1 [Example 1, 2-(1H-Pyrrolo[2,3-b]pyridin-5-yl-oxy)-4-(4-((2-(3-chlorobicyclo[1.1.1]pentan-1-yl)-4,4-dimethylcyclohex-1-en-yl)methyl)piperazin-1-yl)-N-(3-nitro-4-((tetrahydro-2H-pyran-4-yl)methylamino)phenylsulfonyl)benzamide]
Kd (Bcl-XL): > 100 nM | Kd (Bcl-2): < 10 nM | IC50 (RS4;11 cells): < 100 nM

Structure (SMILES): CC1(C)CCC(CN2CCN(c3ccc(C(=O)NS(=O)(=O)c4ccc(NCC5CCOCC5)c([N+](=O)[O-])c4)c(Oc4cnc5[nH]ccc5c4)c3)CC2)=C(C23CC(C)(C2)C3)C1 [Example 9, 2-(1H-pyrrolo[2,3-b]pyridin-5-yloxy)-4-(4-((4,4-dimethyl-2-(3-methylbicyclo[1.1.1]pentan-1-yl)cyclohex-1-enyl)methyl)piperazin-1-yl)-N-(3-nitro-4-((tetrahydro-2H-pyran-4-yl)methylamino)phenylsulfonyl)benzamide]
Kd (Bcl-XL): > 100 nM | Kd (Bcl-2): < 10 nM | IC50 (RS4;11 cells): < 100 nM

Structure (SMILES): CC1(C)CCC(CN2CCN(c3ccc(C(=O)NS(=O)(=O)c4ccc(NCC5CCOCC5)c([N+](=O)[O-])c4)c(Oc4cnc5[nH]ccc5c4)c3)CC2)=C(C23CC(F)(C2)C3)C1 [Example 10, 2-(1H-pyrrolo[2,3-b]pyridin-5-yloxy)-4-(4-((2-(3-fluorobicyclo[1.1.1]pentan-1-yl)-4,4-dimethylcyclohex-1-enyl)methyl)piperazin-1-yl)-N-(3-nitro-4-((tetrahydro-2H-pyran-4-yl)methylamino)phenylsulfonyl)benzamide]
Kd (Bcl-XL): > 100 nM | Kd (Bcl-2): < 10 nM | IC50 (RS4;11 cells): < 100 nM

Structure (SMILES): CC1(C)CCC(CN2CCN(c3ccc(C(=O)NS(=O)(=O)c4ccc(NCC5CC6(CCOCC6)C5)c([N+](=O)[O-])c4)c(Oc4cnc5[nH]ccc5c4)c3)CC2)=C(C23CC(C)(C2)C3)C1 [Example 11, 2-((1H-pyrrolo[2,3-b]pyridin-5-yl)oxy)-N-((4-(((7-oxaspiro[3.5]nonan-2-yl)methyl)amino)-3-nitrophenyl)sulfonyl)-4-(4-((4,4-dimethyl-2-(3-methylbicyclo[1.1.1]pentan-1-yl)cyclohex-1-en-1-yl)methyl)piperazin-1-yl)benzamide]
Kd (Bcl-XL): > 100 nM | Kd (Bcl-2): < 10 nM | IC50 (RS4;11 cells): < 100 nM

Structure (SMILES): CN1CCC(F)(CNc2ccc(S(=O)(=O)NC(=O)c3ccc(N4CCN(CC5=C(C67CC(C)(C6)C7)CC(C)(C)CC5)CC4)cc3Oc3cnc4[nH]ccc4c3)cc2[N+](=O)[O-])CC1 [Example 13, 2-((1H-pyrrolo[2,3-b]pyridin-5-yl)oxy)-4-(4-((4,4-dimethyl-2-(3-methylbicyclo[1.1.1]pentan-1-yl)cyclohex-1-en-1-yl)methyl)piperazin-1-yl)-N-((4-(((4-fluoro-1-methylpiperidin-4-yl)methyl)amino)-3-nitrophenyl)sulfonyl)benzamide]
Kd (Bcl-XL): > 100 nM | Kd (Bcl-2): < 10 nM | IC50 (RS4;11 cells): < 100 nM

Structure (SMILES): CC1(C)CCC(CN2CCN(c3ccc(C(=O)NS(=O)(=O)c4ccc(OCC5(F)CCOCC5)c([N+](=O)[O-])c4)c(Oc4cnc5[nH]ccc5c4)c3)CC2)=C(C23CC(C)(C2)C3)C1 [Example 16, 2-((1H-pyrrolo[2,3-b]pyridin-5-yl)oxy)-4-(4-((4,4-dimethyl-2-(3-methylbicyclo[1.1.1]pentan-1-yl)cyclohex-1-en-1-yl)methyl)piperazin-1-yl)-N-((4-((4-fluorotetrahydro-2H-pyran-4-yl)methoxy)-3-nitrophenyl)sulfonyl)benzamide]
Kd (Bcl-XL): > 100 nM | Kd (Bcl-2): < 10 nM | IC50 (RS4;11 cells): < 100 nM

Structure (SMILES): CN1CCOC(CNc2ccc(S(=O)(=O)NC(=O)c3ccc(N4CCN(CC5=C(C67CC(C)(C6)C7)CC(C)(C)CC5)CC4)cc3Oc3cnc4[nH]ccc4c3)cc2[N+](=O)[O-])C1 (centres unmarked) [Example 17, 2-((1H-pyrrolo[2,3-b]pyridin-5-yl)oxy)-4-(4-((4,4-dimethyl-2-(3-methylbicyclo[1.1.1]pentan-1-yl)cyclohex-1-en-1-yl)methyl)piperazin-1-yl)-N-((4-(((4-methylmorpholin-2-yl)methyl)amino)-3-nitrophenyl)sulfonyl)benzamide]
Kd (Bcl-XL): 10 to 100 nM | Kd (Bcl-2): < 10 nM | IC50 (RS4;11 cells): < 100 nM

IC50 (RS4;11 cells): < 100 nM
Structure (SMILES): CN1CCO[C@H](CNc2ccc(S(=O)(=O)NC(=O)c3ccc(N4CCN(CC5=C(C67CC(C)(C6)C7)CC(C)(C)CC5)CC4)cc3Oc3cnc4[nH]ccc4c3)cc2[N+](=O)[O-])C1 [Example 18, (R)-2-((1H-pyrrolo[2,3-b]pyridin-5-yl)oxy)-4-(4-((4,4-dimethyl-2-(3-methylbicyclo[1.1.1]pentan-1-yl)cyclohex-1-en-1-yl)methyl)piperazin-1-yl)-N-((4-(((4-methylmorpholin-2-yl)methyl)amino)-3-nitrophenyl)sulfonyl)benzamide]

IC50 (RS4;11 cells): < 100 nM
Structure (SMILES): CN1CCO[C@@H](CNc2ccc(S(=O)(=O)NC(=O)c3ccc(N4CCN(CC5=C(C67CC(C)(C6)C7)CC(C)(C)CC5)CC4)cc3Oc3cnc4[nH]ccc4c3)cc2[N+](=O)[O-])C1 [Example 19, (S)-2-((1H-pyrrolo[2,3-b]pyridin-5-yl)oxy)-4-(4-((4,4-dimethyl-2-(3-methylbicyclo[1.1.1]pentan-1-yl)cyclohex-1-en-1-yl)methyl)piperazin-1-yl)-N-((4-(((4-methylmorpholin-2-yl)methyl)amino)-3-nitrophenyl)sulfonyl)benzamide]

Structure (SMILES): CCC12CC(C3=C(CN4CCN(c5ccc(C(=O)NS(=O)(=O)c6ccc(NCC7CCOCC7)c([N+](=O)[O-])c6)c(Oc6cnc7[nH]ccc7c6)c5)CC4)CCC(C)(C)C3)(C1)C2 [Example 23, 2-(1H-pyrrolo[2,3-b]pyridin-5-yloxy)-4-(4-((2-(3-ethylbicyclo[1.1.1]pentan-1-yl)-4,4-dimethylcyclohex-1-enyl)methyl)piperazin-1-yl)-N-(3-nitro-4-((tetrahydro-2H-pyran-4-yl)methylamino)phenylsulfonyl)benzamide]
Kd (Bcl-XL): > 100 nM | Kd (Bcl-2): < 10 nM | IC50 (RS4;11 cells): < 100 nM

Structure (SMILES): CCC12CC(C3=C(CN4CCN(c5ccc(C(=O)NS(=O)(=O)c6ccc(NCC7(F)CCOCC7)c([N+](=O)[O-])c6)c(Oc6cnc7[nH]ccc7c6)c5)CC4)CCC(C)(C)C3)(C1)C2 [Example 25, 2-((1H-pyrrolo[2,3-b]pyridin-5-yl)oxy)-4-(4-((2-(3-ethylbicyclo[1.1.1]pentan-1-yl)-4,4-dimethylcyclohex-1-en-1-yl)methyl)piperazin-1-yl)-N-((4-(((4-fluorotetrahydro-2H-pyran-4-yl)methyl)amino)-3-nitrophenyl)sulfonyl)benzamide]
Kd (Bcl-XL): > 100 nM | Kd (Bcl-2): < 10 nM | IC50 (RS4;11 cells): < 100 nM

Structure (SMILES): CCC12CC(C3=C(CN4CCN(c5ccc(C(=O)NS(=O)(=O)c6ccc(OCC7(F)CCOCC7)c([N+](=O)[O-])c6)c(Oc6cnc7[nH]ccc7c6)c5)CC4)CCC(C)(C)C3)(C1)C2 [Example 26, 2-((1H-pyrrolo[2,3-b]pyridin-5-yl)oxy)-4-(4-((2-(3-ethylbicyclo[1.1.1]pentan-1-yl)-4,4-dimethylcyclohex-1-en-1-yl)methyl)piperazin-1-yl)-N-((4-((4-fluorotetrahydro-2H-pyran-4-yl)methoxy)-3-nitrophenyl)sulfonyl)benzamide]
Kd (Bcl-XL): > 100 nM | Kd (Bcl-2): < 10 nM | IC50 (RS4;11 cells): < 100 nM

Structure (SMILES): CCC12CC(C3=C(CN4CCN(c5ccc(C(=O)NS(=O)(=O)c6ccc(NC[C@H]7CC[C@](C)(O)CC7)c([N+](=O)[O-])c6)c(Oc6cnc7[nH]ccc7c6)c5)CC4)CCC(C)(C)C3)(C1)C2 [Example 27, 2-((1H-pyrrolo[2,3-b]pyridin-5-yl)oxy)-4-(4-((2-(3-ethylbicyclo[1.1.1]pentan-1-yl)-4,4-dimethylcyclohex-1-en-1-yl)methyl)piperazin-1-yl)-N-((4-((((1r,4r)-4-hydroxy-4-methylcyclohexyl)methyl)amino)-3-nitrophenyl)sulfonyl)benzamide]
Kd (Bcl-XL): > 100 nM | Kd (Bcl-2): < 10 nM | IC50 (RS4;11 cells): < 100 nM

Structure (SMILES): CC1(C)CCC(CN2CCN(c3ccc(C(=O)NS(=O)(=O)c4ccc(NCC5CCOCC5)c([N+](=O)[O-])c4)c(Oc4cnc5[nH]ccc5c4)c3)CC2)=C(C23CC(C(F)(F)F)(C2)C3)C1 [Example 28, 2-((1H-pyrrolo[2,3-b]pyridin-5-yl)oxy)-4-(4-((4,4-dimethyl-2-(3-(trifluoromethyl)bicyclo[1.1.1]pentan-1-yl)cyclohex-1-en-1-yl)methyl)piperazin-1-yl)-N-((3-nitro-4-(((tetrahydro-2H-pyran-4-yl)methyl)amino)phenyl)sulfonyl)benzamide]
Kd (Bcl-XL): > 100 nM | Kd (Bcl-2): < 10 nM | IC50 (RS4;11 cells): < 100 nM
